This experiment relates to CD8F1 mice, subcutaneous mammary adenocarcinoma, T/C%. In words: NCI In Vivo Anticancer Drug Screen. Data for tumor model Mammary Adenocarcinoma CD8F1 (subcutaneous) in CD8F1. Conditions: higher = larger tumour. The method, boiled down: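 Transplantable tumors were established in mice, animals were dosed with compound or vehicle, and survival or tumor size was then measured in both groups. The treated result was divided by the control result.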

Where [1] appears, read: endpoint: median tumor weight change, dose: 62.5 mg/kg/injection, schedule: Q01DX001 (ip), vehicle: saline with Tween-80.
Where [2] appears, read: endpoint: median tumor weight change, dose: 125.0 mg/kg/injection, schedule: Q01DX001 (ip), vehicle: saline with Tween-80.
Setting [3] is: endpoint: median tumor weight change, dose: 250.0 mg/kg/injection, schedule: Q01DX001 (ip), vehicle: saline with Tween-80.
Setting [4] is: endpoint: mean tumor weight, dose: 1.0 mg/kg/injection, schedule: Q07DX006 (ip), vehicle: saline.
The mark [5] stands for this setting: endpoint: mean tumor weight, dose: 2.0 mg/kg/injection, schedule: Q07DX006 (ip), vehicle: saline.
Where [6] appears, read: endpoint: median tumor weight (est.), dose: 1.0 mg/kg/injection, schedule: Q07DX005 (ip), vehicle: saline.
Setting [7] is: endpoint: median tumor weight (est.), dose: 2.0 mg/kg/injection, schedule: Q07DX005 (ip), vehicle: saline.
Where [8] appears, read: endpoint: median tumor weight (est.), dose: 4.0 mg/kg/injection, schedule: Q07DX005 (ip), vehicle: saline.
Where [9] appears, read: endpoint: median tumor weight (est.), dose: 50.0 mg/kg/injection, schedule: Q07DX005 (ip), vehicle: Klucel (hydroxypropylcellulose) (HPC).
Where [10] appears, read: endpoint: median tumor weight (est.), dose: 100.0 mg/kg/injection, schedule: Q07DX005 (ip), vehicle: Klucel (hydroxypropylcellulose) (HPC).
[11] abbreviates: endpoint: median tumor weight (est.), dose: 200.0 mg/kg/injection, schedule: Q07DX005 (ip), vehicle: Klucel (hydroxypropylcellulose) (HPC).

SMILES strings stand for the structures. Values joined by “and” are separate entries in the source; they are usually repeats but may differ in a detail not shown here. Identical values can stand only once. Inconclusive results are not listed.

For `O=C(O)C1(C(=O)O)CCC1.[NH2-].[NH2-].[Pt+2]`, the T/C was 98 % of control (endpoint: median tumor weight change, dose: 6.25 mg/kg/injection, schedule: Q01DX001 (ip), vehicle: dextrose); 80 % of control (endpoint: median tumor weight change, dose: 12.5 mg/kg/injection, schedule: Q01DX001 (ip), vehicle: dextrose); 52 % of control (endpoint: median tumor weight change, dose: 25.0 mg/kg/injection, schedule: Q01DX001 (ip), vehicle: dextrose).

As for `C=C(C)C12CC(C)C34OC5(CCCCCCCC(C)C6C(C)C(OC(=O)c7ccccc7)C(O)(C(O)C7(COC(=O)CCCCCCCCCCCCCCC)OC7C3C1O5)C64)O2` (centres undefined), the T/C reads like this: (endpoint: mean tumor weight, dose: 25.0 micrograms/kg/injection, schedule: Q01DX009 (ip), vehicle: Klucel (hydroxypropylcellulose) (HPC)) 82 % of control; (endpoint: mean tumor weight, dose: 50.0 micrograms/kg/injection, schedule: Q01DX009 (ip), vehicle: Klucel (hydroxypropylcellulose) (HPC)) 150 % of control; (endpoint: mean tumor weight, dose: 100.0 micrograms/kg/injection, schedule: Q01DX009 (ip), vehicle: Klucel (hydroxypropylcellulose) (HPC)) 114 % of control; (endpoint: mean tumor weight, dose: 200.0 micrograms/kg/injection, schedule: Q01DX009 (ip), vehicle: Klucel (hydroxypropylcellulose) (HPC)) 151 % of control.

As for `Cc1cc2cc3cc(C)c(N)cc3nc2cc1N`, the T/C runs as follows: (endpoint: median tumor weight change, dose: 31.25 mg/kg/injection, schedule: Q01DX001 (ip), vehicle: saline with Tween-80) 59 % of control; under setting [1], 72 % of control; under setting [2], 42 % of control; under setting [3], 36 % of control.

`CCCCCCCC(=O)OCC(=O)[C@]1(O)Cc2c(O)c3c(c(O)c2[C@@H](OC2CC(N)C(O)C(C)O2)C1)C(=O)c1c(OC)cccc1C3=O` (some centres undefined): the T/C runs as follows: under setting [4], 62 % of control; under setting [5], 19 % of control; under setting [6], 64 % of control; under setting [7], 64 % of control; under setting [8], 66 % of control; (endpoint: median tumor weight (est.), dose: 8.0 mg/kg/injection, schedule: Q07DX005 (ip), vehicle: saline) 11 % of control.

On to `C=C(Cl)C(=NC(C)(C)C)Nc1ccccc1C`, for which the T/C by setting is: (endpoint: median tumor weight change, dose: 31.25 mg/kg/injection, schedule: Q01DX001 (ip), vehicle: Klucel (hydroxypropylcellulose) (HPC)) 86 % of control; (endpoint: median tumor weight change, dose: 62.5 mg/kg/injection, schedule: Q01DX001 (ip), vehicle: Klucel (hydroxypropylcellulose) (HPC)) 85 % of control.

`COc1cccc2c1C(=O)c1c(O)c3c(c(O)c1C2=O)C[C@@](O)(C(=O)COC(=O)c1cccnc1)C[C@@H]3OC1CC(N)C(O)C(C)O1` (some centres undefined): the T/C by setting is: (endpoint: mean tumor weight, dose: 0.5 mg/kg/injection, schedule: Q07DX006 (ip), vehicle: saline) 114 % of control; under setting [4], 53 % of control; under setting [5], 25 % of control; (endpoint: median tumor weight (est.), dose: 0.5 mg/kg/injection, schedule: Q07DX005 (ip), vehicle: saline) 121 % of control; under setting [6], 92 % of control; under setting [7], 72 % of control and 75 % of control. The T/C under setting [8] was 90 % of control.

For `C/C=C\C(C)=C/C(C)C(=O)CC(O)CC1CC(=O)NC(=O)C1` (centres undefined), the T/C was 66 % of control (endpoint: median tumor weight change, dose: 50.0 mg/kg/injection, schedule: Q01DX001 (ip), vehicle: saline with Tween-80); 58 % of control (endpoint: median tumor weight change, dose: 56.0 mg/kg/injection, schedule: Q01DX001 (ip), vehicle: DMSO); 66 % of control (endpoint: median tumor weight change, dose: 100.0 mg/kg/injection, schedule: Q01DX001 (ip), vehicle: saline with Tween-80); 60 % of control (endpoint: median tumor weight change, dose: 112.0 mg/kg/injection, schedule: Q01DX001 (ip), vehicle: DMSO); 73 % of control (endpoint: median tumor weight change, dose: 200.0 mg/kg/injection, schedule: Q01DX001 (ip), vehicle: saline with Tween-80); 77 % of control (endpoint: median tumor weight change, dose: 225.0 mg/kg/injection, schedule: Q01DX001 (ip), vehicle: DMSO). In addition, the T/C (endpoint: median tumor weight change, dose: 400.0 mg/kg/injection, schedule: Q01DX001 (ip), vehicle: saline with Tween-80) is 98 % of control.

`C/C(=N\NC(=S)N1CCN(c2ccccn2)CC1)c1ccccn1`: the T/C reads like this: (endpoint: median tumor weight change, dose: 12.5 mg/kg/injection, schedule: Q01DX001 (ip), vehicle: other) 74 % of control; (endpoint: median tumor weight change, dose: 25.0 mg/kg/injection, schedule: Q01DX001 (ip), vehicle: other) 76 % of control; (endpoint: median tumor weight change, dose: 50.0 mg/kg/injection, schedule: Q01DX001 (ip), vehicle: other) 87 % of control.

For `CNNCc1ccc(C(=O)NC(C)C)cc1`, the T/C (endpoint: median tumor weight (est.), dose: 16.0 mg/kg/injection, schedule: Q07DX005 (ip), vehicle: saline) is 207 % of control and 101 % of control.

Take `OC1CCCC2CCC[N-]C12.OC1CCCC2CCC[N-]C12.[Mn+2]` (centres undefined): the T/C runs as follows: (endpoint: median tumor weight (est.), dose: 12.5 mg/kg/injection, schedule: Q07DX005 (ip), vehicle: Klucel (hydroxypropylcellulose) (HPC)) 83 % of control; (endpoint: median tumor weight (est.), dose: 25.0 mg/kg/injection, schedule: Q07DX005 (ip), vehicle: Klucel (hydroxypropylcellulose) (HPC)) 94 % of control; under setting [9], 81 % of control; under setting [10], 67 % of control; under setting [11], 43 % of control.

`[N-]=[N+]=[N-]`: the T/C was 72 % of control (endpoint: median tumor weight change, dose: 3.0 mg/kg/injection, schedule: Q01DX001 (ip), vehicle: saline); 104 % of control (endpoint: median tumor weight change, dose: 6.0 mg/kg/injection, schedule: Q01DX001 (ip), vehicle: saline); 122 % of control (endpoint: median tumor weight change, dose: 12.0 mg/kg/injection, schedule: Q01DX001 (ip), vehicle: saline); 66 % of control (endpoint: median tumor weight change, dose: 24.0 mg/kg/injection, schedule: Q01DX001 (ip), vehicle: saline).

As for `C[C@]12CCC(=O)C=C1CC[C@@H]1[C@@H]2[C@@H](O)C[C@@]2(C)[C@H]1CC[C@]2(O)C(=O)CO`, the T/C is 76 % of control under setting [9]; 95 % of control under setting [10]; 60 % of control under setting [11]; 29 % of control (endpoint: median tumor weight (est.), dose: 400.0 mg/kg/injection, schedule: Q07DX005 (ip), vehicle: Klucel (hydroxypropylcellulose) (HPC)); 21 % of control (endpoint: median tumor weight (est.), dose: 800.0 mg/kg/injection, schedule: Q07DX005 (ip), vehicle: Klucel (hydroxypropylcellulose) (HPC)); 101 % of control (endpoint: median tumor weight change, dose: 100.0 mg/kg/injection, schedule: Q01DX001 (ip), vehicle: Klucel (hydroxypropylcellulose) (HPC)). The T/C (endpoint: median tumor weight change, dose: 200.0 mg/kg/injection, schedule: Q01DX001 (ip), vehicle: Klucel (hydroxypropylcellulose) (HPC)) is 99 % of control; the T/C (endpoint: median tumor weight change, dose: 400.0 mg/kg/injection, schedule: Q01DX001 (ip), vehicle: Klucel (hydroxypropylcellulose) (HPC)) was 110 % of control; the T/C (endpoint: median tumor weight change, dose: 800.0 mg/kg/injection, schedule: Q01DX001 (ip), vehicle: Klucel (hydroxypropylcellulose) (HPC)) was 57 % of control.

Regarding `O=S(=O)(CCl)OCCCl`, the T/C was 56 % of control under setting [1], 60 % of control under setting [2] and 69 % of control under setting [3].

As to `Cc1nnc2ncccn12`, for the setting “endpoint: median tumor weight change, dose: 250.0 mg/kg/injection, schedule: Q01DX001 (ip), vehicle: saline”, the T/C is 92 % of control.
